# Measurements published in patent US10022387B2, “Aza-heteroaryl compounds as PI3K-gamma inhibitors” (Incyte Corporation, priority 2015, dated 2018).
# Target: PI3Kδ (p110δ/p85α) Recombinant Human Protein (Homo sapiens (Human), UniProt O00329)
# Experiment: PI3Kδ Scintillation Proximity Assay
# Assay type: biochemical
# Settings: 20 μM PIP2, 2 μM ATP, 3.4 nM PI3Kδ, 120 min; read-out: PI3K-delta SPA IC50
# Source text: [γ-^33P]ATP (10 mCi/mL) and Wheat Germ Agglutinin (WGA) YSi SPA Scintillation Beads was purchased from Perkin-Elmer (Waltham, Mass.). Lipid kinase substrate, D-myo-Phosphatidylinositol 4,5-bisphosphate (PtdIns(4,5)P2)D (+)-sn-1,2-di-O-octanoylglyceryl, 3-O-phospho linked (PIP2), CAS 204858-53-7, was purchased from Echelon Biosciences (Salt Lake City, Utah). PI3Kδ (p110δ/p85α) Recombinant Human Protein was purchased from Eurofins (St. Charles, Mo.). ATP, MgCl2, DTT, EDTA, MOPS and CHAPS were purchased from Sigma-Aldrich (St. Louis, Mo.).
# The kinase reaction was conducted in polystyrene 384-well Greiner Bio-one white plate from Thermo Fisher Scientific in a final volume of 25 μL. Inhibitors were first diluted serially in DMSO and added to the plate wells before the addition of other reaction components. The final concentration of DMSO in the assay was 2%. The PI3Kδ assay was carried out at room temperature in 20 mM MOPS, pH 6.7, 10 mM MgCl2, 5 mM DTT and CHAPS 0.03%. Reactions were initiated by the addition of ATP, the final reaction mixture consisted of 20 μM PIP2, 2 μM ATP, 0.5 μCi [γ-^33P] ATP, 3.4 nM PI3Kδ. […] After the plate sealing, plates were shaken overnight at room temperature and centrifuged at 1500 rpm for 10 min, the radioactivity of the product was determined by scintillation counting on Topcount (Perkin-Elmer). […]
# Chain of PI3Kδ (p110δ/p85α) Recombinant Human Protein (O00329 whole entry): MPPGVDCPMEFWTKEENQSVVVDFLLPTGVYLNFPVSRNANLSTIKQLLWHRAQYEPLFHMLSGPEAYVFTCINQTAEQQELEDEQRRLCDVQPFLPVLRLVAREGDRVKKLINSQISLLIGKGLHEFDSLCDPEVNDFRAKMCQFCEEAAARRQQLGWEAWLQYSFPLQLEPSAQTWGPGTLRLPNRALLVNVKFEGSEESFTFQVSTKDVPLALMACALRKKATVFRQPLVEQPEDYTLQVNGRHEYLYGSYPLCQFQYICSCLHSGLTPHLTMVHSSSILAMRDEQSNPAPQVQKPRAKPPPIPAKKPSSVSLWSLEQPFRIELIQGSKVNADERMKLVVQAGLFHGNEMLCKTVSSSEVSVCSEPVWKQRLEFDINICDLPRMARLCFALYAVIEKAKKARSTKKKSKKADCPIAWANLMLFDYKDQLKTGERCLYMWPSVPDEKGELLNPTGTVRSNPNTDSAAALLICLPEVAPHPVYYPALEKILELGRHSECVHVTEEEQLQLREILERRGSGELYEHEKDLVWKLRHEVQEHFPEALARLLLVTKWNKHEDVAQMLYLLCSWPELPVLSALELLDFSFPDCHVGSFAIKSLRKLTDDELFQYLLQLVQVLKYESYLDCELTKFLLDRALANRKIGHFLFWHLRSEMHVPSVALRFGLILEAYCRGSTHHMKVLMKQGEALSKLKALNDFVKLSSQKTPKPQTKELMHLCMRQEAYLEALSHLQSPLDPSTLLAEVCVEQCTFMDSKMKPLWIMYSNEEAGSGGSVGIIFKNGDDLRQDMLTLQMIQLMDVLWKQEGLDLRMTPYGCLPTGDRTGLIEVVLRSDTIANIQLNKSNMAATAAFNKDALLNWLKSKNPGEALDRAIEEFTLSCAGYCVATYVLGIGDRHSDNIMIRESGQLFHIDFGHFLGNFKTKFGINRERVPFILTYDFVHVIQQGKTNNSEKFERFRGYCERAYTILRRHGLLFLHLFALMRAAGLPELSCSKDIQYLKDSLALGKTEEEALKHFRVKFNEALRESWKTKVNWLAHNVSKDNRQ
# Chain of PI3Kδ (p110δ/p85α) Recombinant Human Protein (P27986 whole entry partner): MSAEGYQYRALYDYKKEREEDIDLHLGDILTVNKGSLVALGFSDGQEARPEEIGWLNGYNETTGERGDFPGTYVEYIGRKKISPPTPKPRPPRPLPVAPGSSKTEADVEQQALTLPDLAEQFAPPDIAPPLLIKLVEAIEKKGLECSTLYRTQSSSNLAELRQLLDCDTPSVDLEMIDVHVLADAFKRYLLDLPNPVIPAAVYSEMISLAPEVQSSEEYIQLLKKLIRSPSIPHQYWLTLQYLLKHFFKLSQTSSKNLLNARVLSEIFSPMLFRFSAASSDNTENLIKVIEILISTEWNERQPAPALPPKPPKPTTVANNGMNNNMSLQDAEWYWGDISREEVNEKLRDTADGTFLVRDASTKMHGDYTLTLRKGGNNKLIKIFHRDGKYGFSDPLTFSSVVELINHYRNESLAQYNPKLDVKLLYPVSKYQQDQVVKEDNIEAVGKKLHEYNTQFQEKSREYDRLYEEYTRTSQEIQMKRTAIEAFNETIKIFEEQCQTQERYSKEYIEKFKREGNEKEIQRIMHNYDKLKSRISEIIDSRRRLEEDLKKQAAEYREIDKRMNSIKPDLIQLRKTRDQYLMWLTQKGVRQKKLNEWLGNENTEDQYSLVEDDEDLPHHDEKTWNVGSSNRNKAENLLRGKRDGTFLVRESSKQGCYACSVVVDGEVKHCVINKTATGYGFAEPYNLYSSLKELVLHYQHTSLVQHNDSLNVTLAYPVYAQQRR
row,SMILES,IC50 [µM]
1,"CCS(=O)(=O)Nc1cncc(-c2ccc3nc(-c4nc5ccccc5[nH]4)oc3c2)c1 [Example 18, N-(5-(2-(1H-Benzo[d]imidazol-2-yl)benzo[d]oxazol-6-yl)pyridin-3-yl)ethanesulfonamide]",< 1

# Tested on: Phosphorylated Ribosomal Protein S6 (RPS6) in THP-1 cells
# Experiment: THP-1 RPS6 ELISA Assay
# Assay type: cell-based
# Settings: Homo sapiens, 2 hours with compound, 10 nM MCP-1 for 15 minutes, read-out: THP p-RPS6 ELISA IC50
# Method: To measure the Phosphorylated Ribosomal Protein S6 (RPS6) in cell lysates, THP-1 cells (Human Acute Monocytic Leukemia) are purchased from ATCC (Manassas, Va.) and maintained in RPMI with 10% FBS (Gibco/Life Technologies, Carlsbad, Calif.). For the assay, THP-1 cells are serum starved overnight in RPMI, then plated in RPMI (2×10^5 cells/well in 90 μL) into 96-well flat-bottom tissue culture treated plates (Corning, Corning, N.Y.), in the presence or absence of a concentration range of test compounds. Covered plates are incubated for 2 hours at 37° C., 5% CO2 then treated with or without 10 nM MCP-1 (MYBioSource, San Diego, Calif.) for 15 minutes at 37° C., 5% CO2. Plates are centrifuged at 1600 RPM and supernatants are removed. Cells are lysed in Lysis Buffer (Cell Signaling, Danvers, Mass.) with Protease Inhibitor (Calbiochem/EMD, Germany), PMSF (Sigma, St. Louis, Mo.), HALTS (Thermo Fisher, Rockford, Ill.) for 30 min on wet ice. Cell lysates are frozen at −80° C. before testing. The lysates are tested in the Human/Mouse/Rat Phospho-RPS6 ELISA (R&D Systems, Inc. Minn, Minn.). The plate is measured using a microplate reader (SpectraMax M5—Molecular Devices, LLC Sunnyvale, Calif.) set to 450 nm with a wavelength correction of 540. IC50 determination is performed by fitting the curve of inhibitor percent inhibition versus the log of the inhibitor concentration using the GraphPad Prism 5.0 software.
row,SMILES,IC50 [µM]
1,"CN(C)S(=O)(=O)Nc1cncc(-c2ccc3nc(-c4nc5ccccc5[nH]4)oc3c2)c1 [Example 21, N′-{5-[2-(1H-Benzimidazol-2-yl)-1,3-benzoxazol-6-yl]-pyridin-3-yl}-N,N-dimethylsulfamide]",< 1
2,"O=S(=O)(Nc1cc(-c2ccc3nc(-c4nc5ccccc5[nH]4)oc3c2)cnc1Cl)c1ccc(F)cc1 [Example 29, N-(5-(2-(1H-Benzo[d]imidazol-2-yl)benzo[d]oxazol-6-yl)-2-chloropyridin-3-yl)-4-fluorobenzene-sulfonamide]",< 1
3,"CN1CCN(S(=O)(=O)Nc2cc(-c3ccc4nc(-c5nc6ccccc6[nH]5)oc4c3)cnc2F)CC1 [Example 32, N-(5-(2-(1H-Benzo[d]imidazol-2-yl)benzo[d]oxazol-6-yl)-2-fluoropyridin-3-yl)-4-methylpiperazine-1-sulfonamide]",< 1
4,"c1ccc(Cn2cc(-c3ccc4nc(-c5nc6ccccc6[nH]5)oc4c3)cn2)cc1 [Example 48, 2-(1H-Benzimidazol-2-yl)-6-(1-benzyl-1H-pyrazol-4-yl)-1,3-benzoxazole]",≥ 5
5,"CCS(=O)(=O)Nc1cncc(-c2ccc3nc(-c4nc5ccccc5[nH]4)oc3c2)c1 [Example 18, N-(5-(2-(1H-Benzo[d]imidazol-2-yl)benzo[d]oxazol-6-yl)pyridin-3-yl)ethanesulfonamide]",≥ 5
6,"CN(C)S(=O)(=O)Nc1cc(-c2ccc3nc(-c4nc5ccccc5[nH]4)oc3c2)cnc1F [Example 23, N′-{5-[2-(1H-Benzimidazol-2-yl)-1,3-benzoxazol-6-yl]-2-fluoropyridin-3-yl}-N,N-dimethylsulfamide]",< 1
7,"CCS(=O)(=O)Nc1cc(-c2ccc3nc(-c4nc5ccccc5[nH]4)oc3c2)ccc1F [Example 60, N-{5-[2-(1H-Benzimidazol-2-yl)-1,3-benzoxazol-6-yl]-2-fluorophenyl}ethanesulfonamide]",≥ 5
8,"O=S(=O)(Nc1cncc(-c2ccc3nc(-c4ncc[nH]4)oc3c2)c1)c1ccc(F)cc1 [Example 39, N-(5-(2-(1H-Imidazol-2-yl)benzo[d]oxazol-6-yl)pyridin-3-yl)-4-fluorobenzenesulfonamide]",< 1
9,"CN(C)S(=O)(=O)Nc1cncc(-c2ccc3nc(-c4ncc[nH]4)oc3c2)c1 [Example 41, N′-{5-[2-(1H-Imidazol-2-yl)-1,3-benzoxazol-6-yl]pyridin-3-yl}-N,N-dimethylsulfamide]",< 1
10,"Cc1n[nH]c2ccc(-c3ccc4nc(-c5nc6ccccc6[nH]5)oc4c3)cc12 [Example 50, 2-(1H-Benzimidazol-2-yl)-6-(3-methyl-1H-indazol-5-yl)-1,3-benzoxazole]",≥ 5
11,"CC(C)Oc1cncc(-c2ccc3nc(-c4nc5ccccc5[nH]4)oc3c2)c1 [Example 15, 2-(1H-Benzo[d]imidazol-2-yl)-6-(5-isopropoxypyridin-3-yl)benzo[d]oxazole]",< 5
12,"O=S(=O)(CC(F)(F)F)Nc1cncc(-c2ccc3nc(-c4nc5ccccc5[nH]4)oc3c2)c1 [Example 77, N-(5-(2-(1H-Benzo[d]imidazol-2-yl)benzo[d]oxazol-6-yl)pyridin-3-yl)-2,2,2-trifluoroethanesulfonamide bis(trifluoroacetate)]",< 1
13,"O=S(=O)(Nc1cncc(-c2ccc3nc(-c4nc5ccccc5[nH]4)oc3c2)c1)N1CCCCC1 [Example 20, N-(5-(2-(1H-Benzo[d]imidazol-2-yl)benzo[d]oxazol-6-yl)pyridin-3-yl)piperidine-1-sulfonamide]",< 5
14,"OC(c1cncc(-c2ccc3nc(-c4nc5ccccc5[nH]4)oc3c2)c1)C(F)(F)F (centres unmarked) [Example 74, 1-(5-(2-(1H-Benzo[d]imidazol-2-yl)benzo[d]oxazol-6-yl)pyridin-3-yl)-2,2,2-trifluoroethanol bis(trifluoroacetate)]",≥ 5
15,"OC(c1cncc(-c2ccc3nc(-c4nc5c([nH]4)CCCC5)oc3c2)c1)C(F)(F)F (centres unmarked) [Example 68, 2,2,2-Trifluoro-1-(5-(2-(4,5,6,7-tetrahydro-1H-benzo[d]imidazol-2-yl)benzo[d]oxazol-6-yl)pyridin-3-yl)ethanol]",< 5
16,"N#Cc1cncc(-c2ccc3nc(-c4nc5ccccc5[nH]4)oc3c2)c1 [Example 35, 5-(2-(1H-Benzo[d]imidazol-2-yl)benzo[d]oxazol-6-yl)nicotinonitrile]",< 5
